# Columns and labels:
# Glutamate NMDA receptor = test: Inhibition of [3H]dizocilpine binding to N-methyl-D-aspartate (NMDA) receptor complex in rat brain membranes; type: cell membranes
# Rattus norvegicus [1] = species on record: Rattus norvegicus; test: Protective potency against glutamate-induced neurotoxicity in cultures of embryonic rat brain at a concentration of 100 uM (p < 0.05); type: functional
# Rattus norvegicus [2] = species on record: Rattus norvegicus; test: Protective potency against glutamate-induced neurotoxicity in cultures of embryonic rat brain at a compound concentration of 100 uM; type: functional
# Rattus norvegicus [3] = species on record: Rattus norvegicus; test: Protective potency against glutamate-induced neurotoxicity in cultures of embryonic rat brain at a compound concentration of 10 uM+Glutamate (100 uM); type: functional
# Rattus norvegicus [4] = species on record: Rattus norvegicus; test: Protective potency against glutamate-induced neurotoxicity in cultures of embryonic rat brain at a concentration of 100 uM+Glutamate (100 uM); type: functional
# Rattus norvegicus [5] = species on record: Rattus norvegicus; test: Inhibitory activity (1.0 uM) against NMDA (30 uM) and glycine (10 uM) induced increase in [Ca2+]i in cultured forebrain neurons from fetal rat; type: functional; design: scale not given: the % may be the effect or the level left
# Rattus norvegicus [6] = species on record: Rattus norvegicus; test: Inhibitory activity (10.0 uM) against NMDA (30 uM) and glycine (10 uM) induced increase in [Ca2+]i in cultured forebrain neurons from fetal rat; type: functional; design: scale not given: the % may be the effect or the level left
# Rattus norvegicus [7] = species on record: Rattus norvegicus; test: Inhibitory activity (0.1 uM) against NMDA (30 uM) and glycine (10 uM) induced increase in [Ca2+]i in cultured forebrain neurons from fetal rat; type: functional; design: scale not given: the % may be the effect or the level left
# Rattus norvegicus [8] = species on record: Rattus norvegicus; test: Protective potency against glutamate-induced neurotoxicity in cultures of embryonic rat brain at a compound concentration of 10 uM; type: functional
SMILES,IC50 (Glutamate NMDA receptor) [µM],further results
N=C(N)c1ccc(OC[C@@H]2C[C@H]2COc2ccc(C(=N)N)cc2)cc1,11.7,
c1cc(N2CCN(c3ccc(C4=NCCN4)cc3)CC2)ccc1C1=NCCN1,18.2,
N=C(N)c1ccc(NC(=O)c2cccc(C(=O)Nc3ccc(C(=N)N)cc3)c2)cc1,> 200,
C(=C1/CCCN(c2ccc(C3=NCCN3)cc2)C1)/c1ccc(C2=NCCN2)cc1,8.35,
c1cc(C2=NCCN2)ccc1OC[C@@H]1C[C@H]1COc1ccc(C2=NCCN2)cc1,16.5,
N[C@@H](CCC(=O)O)C(=O)O [GLUTAMIC ACID],,Activity (Rattus norvegicus [1]): 60%
N=C(N)c1ccc(NC(=O)c2cccc(C(=O)Nc3ccc(C(=N)N)cc3)n2)cc1,66,
C(=C1CCN(Cc2ccc(C3=NCCN3)cc2)CC1)c1ccc(C2=NCCN2)cc1,35.6,
N#Cc1ccc(N2CCCN(c3ccc(C#N)cc3)CC2)cc1,45.8,

# Continued by falling IC50 (Glutamate NMDA receptor), values first:
IC50 (Glutamate NMDA receptor) [µM],SMILES,further results
7.84,c1cc(C2=NCCN2)ccc1CC1CCCN(c2ccc(C3=NCCN3)cc2)C1 (configuration not stated),
6.29,c1cc(C2=NCCN2)ccc1CC1CCN(c2ccc(C3=NCCN3)cc2)CC1,
5.32,N=C(N)c1ccc(N2CCN(c3ccc(C(=N)N)cc3)CC2)cc1,
4.99,c1cc(N2CCCN(c3ccc(C4=NCCN4)cc3)CC2)ccc1C1=NCCN1,
2.59,N=C(N)c1ccc(OCCCCCOc2ccc(C(=N)N)cc2)cc1 [PENTAMIDINE],
1.19,N=C(N)c1ccc(N2CCCN(c3ccc(C(=N)N)cc3)CC2)cc1,Activity (Rattus norvegicus [2]): 87%; Activity (Rattus norvegicus [3]): 99%; Activity (Rattus norvegicus [4]): 98%; Activity (Rattus norvegicus [5]): 67.04%; Activity (Rattus norvegicus [6]): 37.58%; Activity (Rattus norvegicus [7]): 111.26%; Activity (Rattus norvegicus [8]): 100%

# From ChEMBL document CHEMBL1132046, “Novel bisbenzamidines and bisbenzimidazolines as noncompetitive NMDA receptor antagonists” (Bioorg Med Chem Lett, 1999)
